# A melting point compilation (Tetko et al.; mined from patent text by program, amines drawn as free bases though some values may be those of a salt)
# Non-standard residues stand in square brackets, D forms with d. Residues, ends and D or L forms follow the SMILES beside them. ξ: configuration not given here. *: point of attachment. ξPhe(4-NO2) = NC(Cc1ccc([N+](=O)[O-])cc1)C(=O)O; Boc = CC(C)(C)OC(=O)*; OBn = c1ccc(CO*)cc1
row,SMILES,melting point [°C]
1,CN(N)c1nc(=S)[nH]c2[nH]cnc12,245
2,Clc1cccc(C(Cl)Cl)n1,48 to 52
3,Cc1c(/C=C/C(=O)N(C)C)ncn1C(c1ccccc1)(c1ccccc1)c1ccccc1,195 to 197
4,COc1nc(C#N)c(C#N)n1C,192 to 194
5,CC(C)(C)C(=O)OCN1C(=O)CN(CCN2CC(=O)N(COC(=O)C(C)(C)C)C(=O)C2)CC1=O,114 to 118
6,CSC(=C[N+](=O)[O-])NCCCCc1csc(N(CC(F)(F)F)C(=N)N)n1,140 to 141
7,CCCC(CCC)n1nnc2c(Nc3c(C)cc(C)cc3Br)nc(C)nc21,141 to 142
8,O=S(=O)(NC(CO)CO)c1ccc(Cl)s1,90 to 92
9,COC(=O)C1(O)CN2CCC1CC2 (configuration not stated),122
10,CCOC(=O)c1nc2sc3c(c2c(=O)[nH]1)CCCC3,207 to 209
11,CNNC(=O)OC(C)(C)C,50
12,Clc1ccc(C2=CCN(CCCCn3cncn3)CC2)cc1,101 to 103
13,O=C(O)[C@H](CC1CC1)N1C(=O)NC(C(F)(F)F)(C(F)(F)F)C1=O,123 to 125
14,O=C1CCC(N2C(=O)c3cccc(NCC(=O)N4CCC4)c3C2=O)C(=O)N1 (configuration not stated),272 to 274
15,C[C@H]1[C@@H](O)CC(=O)N1c1ccc(C#N)c(Cl)c1,161 to 162
16,C=CCn1c(=O)c([N+](=O)[O-])c(O)c2ccccc21,125 to 127
17,CCCCOc1nc(N)c2[nH]c(=O)n(CCCCN(CCCN3CCCC3=O)Cc3cccc(CC(=O)OC)c3)c2n1,115 to 116
18,Cc1coc2c1C(=O)CC(c1ccco1)C2 (configuration not stated),60 to 61
19,COc1ccc2c(Cc3ccc(OC4CCCCC4N(C)C)cc3)c(-c3ccc(OCCN4CCCC4)cc3)sc2c1 (configuration not stated),58 to 61
20,CCCCCCSc1nn2c(=O)cc(O)nc2s1,187 to 192
21,O=C(O)CCC(CS(=O)(=O)c1ccc2ccccc2c1)C(=O)N(CCC1CCCCC1)CCC1CCCCC1 (configuration not stated),138 to 140
22,COc1cccc(S(=O)(=O)N(C)C)c1C#N,121 to 128
23,CCOCCn1c(CN2CCN(CCNc3nc4cnccc4[nH]3)CC2)nc2cccnc21,124
24,N#CC(CF)(CF)CF,70 to 75
25,CCCCC[C@H]1CC[C@H](c2ccc(NC(=O)OC)cc2)CC1,105 to 110
26,N#CC1Cc2cc3c(cc21)NCC3 (configuration not stated),85 to 87
27,CCc1cc(C)cc(CC)c1C1C(=O)CC(CC(C)S(=O)(=O)CC)CC1=O (configuration not stated),62 to 65
28,CC12CCC3C(CC=C4CCCCC43C)C1CC=C2Br (configuration not stated),109 to 113
29,COc1c(C#N)c(C)cc2c1C(C)(C)CCC2(C)C,71 to 73
30,COc1ncc(NC(N)=S)c(OC)n1,175

# Other lines, results leading:
row,melting point [°C],SMILES
1,60 to 62,COc1ccc2c(c1)Oc1c(ccc(OC)c1C(OC)OC)C2(C)C
2,197 to 198,Nc1nccc(-c2ccc(OCC(O)CN3CCN(c4cccc(Cl)c4)CC3)cc2)n1 (configuration not stated)
3,108 to 110,CC1CC(C)(C)C(=O)C(C(=O)c2ccc(OC(F)F)cc2[N+](=O)[O-])C1=O (configuration not stated)
4,205 to 206,Cn1cc(-c2cc3cccnc3[nH]2)c2cc(C(=O)NC(CO)(CO)CO)ccc21
5,226,CN(c1cccc2cc(C3=NCC4(CCN(CC(N)=O)CC4)S3)[nH]c12)S(=O)(=O)c1cccs1
6,154 to 156,C=Cc1cc(OC(C)=O)cc2nc(-c3ccc(OC(C)=O)c(F)c3)oc12
7,185 to 188,CCS(=O)CCC(=O)NNC(=O)N1Cc2ccccc2Oc2ccc(Cl)cc21 (configuration not stated)
8,104 to 105,N#Cc1ccc(-c2ccc(-c3ccco3)o2)cc1
9,111 to 113,CCCCC(Cc1ccc(OCCNC(=O)c2ccc(-c3ccc(CO)cc3)cc2)cc1)C(=O)O (configuration not stated)
10,107 to 132,Cc1cccc2sc3ccccc3c(=O)c12
11,175,CC(C(N)=O)c1ccc2c(c1)CCc1ccccc1C2=O (configuration not stated)
12,205 to 208,COc1ccc(CNc2n[nH]c3ncnc(Nc4cccc(Cl)c4)c23)cc1Cl
13,217 to 219,COc1cc(OC)c2c(=O)cc(C(C)(C)C(N)=O)oc2c1
14,221 to 222,CNC1(c2ccccc2Cl)C(=O)N(S(=O)(=O)c2ccc(NC(=O)c3ccccc3Cl)cc2)c2ccc(Cl)cc21 (configuration not stated)
15,35 to 36,Cc1ccc(S(=O)(=O)OCCOc2ccc(OC(F)(F)F)cc2)cc1
16,208 to 210,CCOC(=O)C1=C(C)NC(c2csc(C)n2)=NC1c1ccc(O)cc1 (configuration not stated)
17,85 to 88,COC(=O)c1ccc2c(c1)Sc1ccc(F)cc1C(O)=C2
18,115 to 118,CC(C)(C)OC(=O)NC(Cc1ccc([N+](=O)[O-])cc1)C(=O)NCC(=O)OCc1ccccc1 (configuration not stated) (Boc-[ξPhe(4-NO2)]-Gly-OBn)
19,160 to 163,O=C(Oc1cc2ccccc2cn1)c1cc2ccccc2oc1=O
20,166 to 168,O=C1Cc2cccc(Nc3ccccc3)c2N1
21,104 to 106,COc1ccc(CN(CCN(C)CCCCNC(=O)NCCSCc2csc(NC(=N)N)n2)c2ccccn2)cc1

row,melting point [°C],SMILES
1,223 to 224,CCC(CC)Nc1c(NCc2ccc(OC)c(OC)c2)c(=O)c1=O
2,217 to 219,CN1C(C(=O)Nc2nncs2)=C(O)c2ccc3ccccc3c2S1(=O)=O
3,65 to 66.5,CCOC(=O)c1nsc(-c2ccc(C)cc2)n1
4,154 to 163,Cc1ccc(C(=O)Nc2ccc(-n3ccnc3C)cc2C(F)(F)F)cc1Nc1nccc(-c2cccnc2)n1
5,88 to 91,C=C(Cc1ccc(OC)cc1)C(=O)O
6,176 to 178,O=C1N(Cc2ncccc2Cl)c2ccccc2C12COc1cc3c(cc12)OCCO3 (configuration not stated)
7,108 to 109,OC1(c2cccn2Cc2ccccc2F)CCN(CCc2ccc(Cl)cc2)CC1
8,226 to 228,COc1ccc(Cl)cc1C(=N)Nc1cc(Cl)cc(NC(=O)/C=C/c2ccccc2Cl)c1
9,179 to 181,O=C(O)Cc1nn(Cc2ccc(Br)cc2)c(=O)c2ccccc12
10,213 to 214,COc1cc2c(cc1N1CCN(C)CC1)N(C(=O)c1ccc(-c3ccc(-c4noc(C)n4)cc3C)cc1)CC2
11,282 to 284,Cn1cc(C2=C(c3cn(C)c4ccc([N+](=O)[O-])cc34)C(=O)NC2=O)c2ccccc21
12,< 80,CC(C)(O)c1cccc(Oc2cccc(-c3c(Cc4ccccc4)cnc4c(C(F)(F)F)cccc34)c2)c1
13,163 to 165,CCCCCOc1cc(C(=O)O)cc([N+](=O)[O-])c1C(=O)c1ccccc1
14,147,C#CCCC(O)=C(C#N)C(=O)Nc1ccc(Cl)c(C)c1
15,187 to 189,CCOC(=O)c1cn2c(cc(OC(C)C)c3ccc(Cl)cc32)n1
16,130 to 132,O=C1C(=O)c2ccccc2C2=C1SCC1(CCN(CCCOc3ccc(Cl)cc3)CC1)O2
17,78 to 81,C[C@@H](CC(=O)O)OC(=O)OCc1ccc([N+](=O)[O-])cc1
18,368 to 371,CC1(c2ccccc2)Nc2ccc3c(c2N1)C(=O)c1ccccc1C3=O (configuration not stated)
19,192 to 193,C[C@@H]1S[C@@H](C(=O)O)Cc2cc3c(cc2C1=O)OCO3
20,68 to 69,COC(=O)C(c1ccc(N)cc1)C1CC1 (configuration not stated)
21,188 to 190,COc1ccccc1C1(O)C(O)CC(c2ccccc2)(c2ccccc2)C2CN(C(=O)Cc3ccccc3O)CC21 (configuration not stated)
